Where a name gives a salt, the structure may show the parent alone.

A short description of one data set: Solubility in water. Type of data set: physicochemical.
A short description of the next data set: Solubility in DMA. It counts as physicochemical.

For `CCOC(=O)[C@]1(c2ccccc2)C[C@@H]1CN(Cc1ccccc1)Cc1ccccc1` (relative stereo) [Example 11, Hydrochloride of 1-phenyl-1-ethoxycarbonyl 2-dibenzyl amino-methyl cyclopropane (Z)], in “Solubility in water”, the “Solubility in water (in words)” value was “insoluble in water”. Further, the “Solubility in DMA” value in “Solubility in DMA” is 2%.

In the case of `CCOC(=O)[C@]1(c2ccccc2)C[C@@H]1CN(C)C1CCCCC1` (relative stereo) [Example 19, Fumarate of 1-phenyl 1-ethoxycarbonyl 2-N-methyl-N-cyclohexyl-aminomethyl cyclopropane (Z)], the “Solubility in water (in words)” value in “Solubility in water” is “insoluble in water”. Moreover, in “Solubility in DMA”, the “Solubility in DMA” value was 5%.

In the case of `CCOC(=O)[C@]1(c2ccccc2)C[C@@H]1CN1CCC(c2ccccc2)CC1` (relative stereo) [Example 20, Hydrochloride of 1-phenyl 1-ethoxycarbonyl 2-(4'-phenylpiperidino)methyl cyclopropane (Z)], in the data set “Solubility in water”, the “Solubility in water (in words)” value is listed as “insoluble in water”. Besides, the “Solubility in DMA” value in the data set “Solubility in DMA” was found to be 50%.

The record behind these values is patent publication US4507318A, “1-Aryl 2-aminomethyl cyclopropane carboxylates (Z) as drugs in the treatment of pain” (Pierre Fabre S.A., priority 1981, dated 1985).
